Test results taken from patent US20250122465A1 (priority 2023, published 2025).
Like-named read-outs stand apart in the source and are kept apart here.

Columns and labels:
STRAIN-1 = experiment: Spore activation rate by phase-contrast microscopy, STRAIN-1; assay type: cell-based, Bacillus
[1] = test system: Clostridium perfringens type A and G strains; settings: combined with taurocholate; cited from earlier work
[2] = Example 1, individual amino acid at its Table 1 amount (0.08-500 g/L), 42° C., 1 hour
[3] = Example 1, individual amino acid at its Table 1 amount (0.08-500 g/L), 42° C., 24 hours

NCC(=O)O [Glycine]
Activation Rate (%) at 1 hr. (STRAIN-1; [2]): 0%
Activation Rate (%) at 24 hrs. (STRAIN-1; [3]): 0%

OC[C@H]1O[C@@H](n2cnc3c(O)ncnc32)[C@H](O)[C@@H]1O [Inosine]
Activation Rate (%) at 1 hr. (STRAIN-1; [2]): 0%
Activation Rate (%) at 24 hrs. (STRAIN-1; [3]): 0%

C[N+](C)(C)C[C@H](O)CC(=O)[O-] [L Carnitine]
Activation Rate (%) at 1 hr. (STRAIN-1): 0%
Activation Rate (%) at 24 hrs. (STRAIN-1): 0%

N=C(N)NCCC[C@H](N)C(=O)O [L-Arginine]
Activation Rate (%) at 1 hr. (STRAIN-1; [2]): 0%
Activation Rate (%) at 24 hrs. (STRAIN-1; [3]): 0%

N[C@@H](CC(=O)O)C(=O)O [L-Aspartic acid]
Activation Rate (%) at 1 hr. (STRAIN-1; [2]): 0%
Activation Rate (%) at 24 hrs. (STRAIN-1; [3]): 0%

N[C@@H](CS)C(=O)O [L-Cysteine]
Activation Rate (%) at 1 hr. (STRAIN-1; [2]): 0%
Activation Rate (%) at 24 hrs. (STRAIN-1; [3]): 0%

N[C@@H](CSSC[C@H](N)C(=O)O)C(=O)O [L-Cystine]
Activation Rate (%) at 1 hr. (STRAIN-1; [2]): 0%
Activation Rate (%) at 24 hrs. (STRAIN-1; [3]): 0%

N[C@@H](CCC(=O)O)C(=O)O [L-Glutamic acid]
Activation Rate (%) at 1 hr. (STRAIN-1; [2]): 0%
Activation Rate (%) at 24 hrs. (STRAIN-1; [3]): 0%

NC(=O)CC[C@H](N)C(=O)O [L-Glutamine]
Activation Rate (%) at 1 hr. (STRAIN-1; [2]): 0%
Activation Rate (%) at 24 hrs. (STRAIN-1; [3]): 0%

N[C@@H](Cc1c[nH]cn1)C(=O)O [L-Histidine]
Activation Rate (%) at 1 hr. (STRAIN-1; [2]): 0%
Activation Rate (%) at 24 hrs. (STRAIN-1; [3]): 0%

CC[C@H](C)[C@H](N)C(=O)O [L-Isoleucine]
Activation Rate (%) at 24 hrs. (STRAIN-1; [3]): 99 +/− 0%
Activation Rate (%) at 24 hrs. (STRAIN-1; Example 1, individual amino acid at its Table 1 amount (0.08-500 g/L), 42° C., 24 hours, listed as L-isoleucine): 99%

CC(C)C[C@H](N)C(=O)O [L-Leucine]
Activation Rate (%) at 24 hrs. (STRAIN-1): zero
Activation Rate (%) at 1 hr. (STRAIN-1; [2]): 0%
Activation Rate (%) at 24 hrs. (STRAIN-1; [3]): 0%

NCCCC[C@H](N)C(=O)O [L-Lysine]
Activation Rate (%) at 1 hr. (STRAIN-1): 0%
Activation Rate (%) at 24 hrs. (STRAIN-1): 0%

CSCC[C@H](N)C(=O)O [L-Methionine]
Activation Rate (%) at 1 hr. (STRAIN-1; [2]): 0%
Activation Rate (%) at 24 hrs. (STRAIN-1; [3]): 0%

N[C@@H](Cc1ccccc1)C(=O)O [L-Phenylalanine]
Activation Rate (%) at 1 hr. (STRAIN-1; [2]): 0%
Activation Rate (%) at 24 hrs. (STRAIN-1; [3]): 0%

O=C(O)[C@@H]1CCCN1 [L-Proline]
Activation Rate (%) at 1 hr. (STRAIN-1; [2]): 0%
Activation Rate (%) at 24 hrs. (STRAIN-1; [3]): 0%

N[C@@H](CO)C(=O)O [L-Serine]
Activation Rate (%) at 1 hr. (STRAIN-1; [2]): 0%
Activation Rate (%) at 24 hrs. (STRAIN-1; [3]): 0%

C[C@@H](O)[C@H](N)C(=O)O [L-Threonine]
Activation Rate (%) at 1 hr. (STRAIN-1; [2]): 0%
Activation Rate (%) at 24 hrs. (STRAIN-1; [3]): 0%

N[C@@H](Cc1c[nH]c2ccccc12)C(=O)O [L-Tryptophan]
Activation Rate (%) at 1 hr. (STRAIN-1; [2]): 0%
Activation Rate (%) at 24 hrs. (STRAIN-1; [3]): 0%

N[C@@H](Cc1ccc(O)cc1)C(=O)O [L-Tyrosine]
Activation Rate (%) at 1 hr. (STRAIN-1; [2]): 0%
Activation Rate (%) at 24 hrs. (STRAIN-1; [3]): 0%

CC(C)[C@H](N)C(=O)O [L-Valine]
Activation Rate (%) at 1 hr. (STRAIN-1): did not result in any activation
Activation Rate (%) at 1 hr. (STRAIN-1; [2]): 0%
Activation Rate (%) at 24 hrs. (STRAIN-1; [3]): 95 +/− 0%
Activation Rate (%) at 24 hrs. (STRAIN-1; Example 1, individual amino acid at its Table 1 amount (0.08-500 g/L), 42° C., 24 hours, listed as L-valine): 95%

C[C@H](N)C(=O)O [L-alanine]
spore germination induced [1]: approximately 50%
